From patent US20190247350A1, “COMPOSITION FOR IMPROVING DECREASED ABSORPTION IN DIGESTIVE TRACT, AND COMPOSITION FOR PROMOTING ABSORPTION IN DIGESTIVE TRACT” (AJINOMOTO CO., INC., priority 2016, published 2019)

How the values were obtained:
Format in all cases: in vivo, mouse
[1] = system: small intestine (everted intestine sample); test: Glucose absorption capacity of everted intestine sample after running exercise (Experimental Example 2); conditions: feed with cystine 2 wt % for 7 days, 4 hr running
Text: 7-Week-old male CD2F1 mice (CHARLES RIVER LABORATORIES JAPAN, INC.) were divided into 3 groups (“Sed”, “Ex” and “Ex+Cys2”) (n=12/group), Sed group and Ex group were made to ingest a standard purified feed (AIN-93G composition), and Ex+Cys2 group was made to ingest a standard purified feed (AIN-93G composition) added with cystine (2 wt %) by replacing casein, each for 7 days. Thereafter, each group was fasted overnight, and Ex group and Ex+Cys2 group were made to run in a running wheel for 4 hr (speed=10.5 m/min). Sed group was continuously fasted during the running exercise of Ex group and Ex+Cys2 group. […]
Ringer buffer containing 10 mM glucose was added to the serous membrane side and the villus side of the produced everted intestine sample of each group, and the sample was incubated under oxygen supply at 37° C. for 90 min. Thereafter, the everted intestine sample was taken out, and the glucose concentration of the Ringer buffer on the serous membrane side and the villus side was measured using a glucose measurement kit (“glucose CII Test Wako” (Wako Pure Chemical Industries, Ltd.)). The glucose absorption capacity of each group was calculated from the difference in the glucose concentration between the villus side and the serous membrane side. […]

[2] = system: aquaporin gene (Aqa3); test: Expression of aquaporin gene in small intestine after running exercise (GeneChip array); conditions: feed with 2 wt % for 7 days, 4 hr running, small intestine 1 hr after running; compared to Ex group; P<0.01
Text: (§1) 7-Week-old male CD2F1 mice (CHARLES RIVER LABORATORIES JAPAN, INC.) were divided into 4 groups (“Sed”, “Ex”, “Ex+Gln” and “Ex+Cys2”) (n=6/group), Sed group and Ex group were made to ingest a standard purified feed (AIN-93G composition), Ex+Gln group was made to ingest a standard purified feed (AIN-93G composition) added with glutamine (2 wt %) by replacing casein, and Ex+Cys2 group was made to ingest a standard purified feed (AIN-93G composition) added with cystine (2 wt %) by replacing casein, each for 7 days. Thereafter, each group was fasted overnight, and Ex group, Ex+Gln group and Ex+Cys2 group were made to run in a running wheel for 4 hr (speed=10.5 m/min). Sed group was continuously fasted during the running exercise of Ex group, Ex+Gln group and Ex+Cys2 group. At 1 hr after completion of running, the small intestine was collected from the mice of each group, and total RNA was extracted using Rneasy Lipid Tissue Mini Kit (QIAGEN). GeneChip Mouse Genome 430 2.0 (3′IVT) array (Affymetrix) was used for the measurement of comprehensive gene expression. Difference in the gene expression level of each group was tested by Dunnett's test following one-way analysis of variance. […]

[3] = system: sodium-dependent multivitamin transporter gene (Slc5a6); test: Expression of sodium-dependent multivitamin transporter gene in small intestine after running exercise (GeneChip array); conditions: feed with 2 wt % for 7 days, 4 hr running, small intestine 1 hr after running; compared to Ex group; P<0.05
Text: as §1

[4] = system: ABC protein G5 gene (Abcg5); test: Expression of ABC protein G5 gene in small intestine after running exercise (GeneChip array); conditions: feed with 2 wt % for 7 days, 4 hr running, small intestine 1 hr after running; compared to Ex group; P<0.05
Text: as §1

[5] = system: peptide transporter gene (Slc15a1); test: Expression of peptide transporter gene in small intestine after running exercise (GeneChip array); conditions: feed with 2 wt % for 7 days, 4 hr running, small intestine 1 hr after running; compared to Ex group; P<0.01
Text: as §1

[6] = system: small intestine (everted intestine sample); test: Glucose absorption capacity of everted intestine sample without exercise (Experimental Example 3); conditions: non-exercise, feed with cystine 2 wt % for 7 days, 10 mM glucose, 37° C., 90 min, Sed+Cys2 compared to Sed group
Text: 7-Week-old male CD2F1 mice (CHARLES RIVER LABORATORIES JAPAN, INC.) were divided into 2 groups (“Sed” and “Sed+Cys2”) (n=6/group), Sed group was made to ingest a standard purified feed (AIN-93G composition), and Sed+Cys2 group was made to ingest a standard purified feed (AIN-93G composition) added with cystine (2 wt %) by replacing casein, each for 7 days. Then, each group was fasted overnight, and the small intestine was collected, everted intestine samples were produced according to the method of KirK et al. (ADVANCES In Physiology Education 37 (4) 415-426 (2013), which is incorporated herein by reference in its entirety). […]
Ringer buffer containing 10 mM glucose was added to the serous membrane side and the villus side of the everted intestine sample of each group, and the sample was incubated under oxygen supply at 37° C. for 90 min. Thereafter, the everted intestine sample was taken out, and the glucose concentration of the Ringer buffer on the serous membrane side and the villus side was measured using a glucose measurement kit (“glucose CII Test Wako” (Wako Pure Chemical Industries, Ltd.)). The glucose absorption capacity of each group was calculated from the difference in the glucose concentration between the villus side and the serous membrane side. The difference in the glucose absorption capacity of each group was determined by a comparison t-test between two groups. […]

[7] = system: sodium-dependent glucose transporter gene (SGLT1); test: Expression of sodium-dependent glucose transporter gene in small intestine after running exercise (real-time PCR); conditions: feed with cystine 2 wt % for 7 days, 4 hr running; compared to Ex group; tendency toward significance at P<0.1
Text: 7-Week-old male CD2F1 mice (CHARLES RIVER LABORATORIES JAPAN, INC.) were divided into 3 groups (“Sed”, “Ex” and “Ex+Cys2”) (n=12/group), Sed group and Ex group were made to ingest a standard purified feed (AIN-93G composition), and Ex+Cys2 group was made to ingest a standard purified feed (AIN-93G composition) added with cystine (2 wt %) by replacing casein, each for 7 days. Thereafter, each group was fasted overnight, and Ex group and Ex+Cys2 group were made to run in a running wheel for 4 hr (speed=10.5 m/min). Sed group was continuously fasted during the running exercise of Ex group and Ex+Cys2 group. Immediately after completion of running, the small intestine was collected, everted intestine samples were produced according to the method of KirK et al. (ADVANCES In Physiology Education 37 (4) 415-426 (2013), which is incorporated herein by reference in its entirety). As the everted intestine sample, a part of 8 cm below the point of 4 cm from the pyloric part was used.
Furthermore, using Rneasy Lipid Tissue Mini Kit (QIAGEN), total RNA was extracted from a part of the small intestine used for producing the everted intestine sample. QuantStudio 12K Flex Real-Time PCR System (Thermo Fisher Scientific) was used for the measurement of the expression of sodium-dependent glucose transporter gene (SGLT1). […]

[8] = system: biotinidase gene (Btd); test: Expression of biotinidase gene in small intestine after running exercise (GeneChip array); conditions: feed with 2 wt % for 7 days, 4 hr running, small intestine 1 hr after running; compared to Ex group; P<0.01
Text: as §1

[9] = system: ABC protein G8 gene (Abcg8); test: Expression of ABC protein G8 gene in small intestine after running exercise (GeneChip array); conditions: feed with 2 wt % for 7 days, 4 hr running, small intestine 1 hr after running; compared to Ex group; P<0.05
Text: as §1

[10] = system: amino acid transporter gene (Slc7a7); test: Expression of amino acid transporter gene in small intestine after running exercise (GeneChip array); conditions: feed with 2 wt % for 7 days, 4 hr running, small intestine 1 hr after running; compared to Ex group; tendency toward significance at P=0.1
Text: as §1

[11] = system: scavenge receptor class B gene (Scarb1); test: Expression of scavenge receptor class B gene in small intestine after running exercise (GeneChip array); conditions: feed with 2 wt % for 7 days, 4 hr running, small intestine 1 hr after running; compared to Ex group; tendency toward significance at P<0.1
Text: as §1

[12] = system: folic acid transporter gene (Slc46a1); test: Expression of folic acid transporter gene in small intestine after running exercise (GeneChip array); conditions: feed with 2 wt % for 7 days, 4 hr running, small intestine 1 hr after running; compared to Ex group; P<0.05
Text: as §1

`NC(CSSCC(N)C(=O)O)C(=O)O` (stereo not drawn) [cystine, 3,3′-dithiobis(2-aminopropanoic acid)] was tested, and the “glucose absorption capacity (difference in glucose concentration between villus side and serous membrane side)” value ([1]; 10 mM glucose, 37° C., 90 min, compared to Ex group) was “significantly (P<0.05) improved”, the “glucose absorption capacity (difference in glucose concentration between villus side and serous membrane side)” value ([1]; Ex+Cys2 compared to Sed group (no exercise)) was “higher” and the “expression level of aquaporin gene (mRNA level)” value [2] was “increased”. For the same compound, the “expression level of sodium-dependent multivitamin transporter gene (mRNA level)” value [3] was “increased”, the “expression level of ABC protein G5 gene (mRNA level)” value [4] was “increased” and the “expression level of peptide transporter gene (mRNA level)” value [5] was “increased”. The “glucose absorption capacity (difference in glucose concentration between villus side and serous membrane side)” value [6] was “improved”, the “expression of SGLT1 (mRNA amount)” value [7] was “tended to increase” and the “expression level of biotinidase gene (mRNA level)” value [8] was “increased”.
For `NC(=O)CCC(N)C(=O)O` (stereo not drawn) [glutamine, 2-amino-4-carbamoylbutanoic acid], the “expression level of aquaporin gene (mRNA level)” value [2] was “increased”, the “expression level of ABC protein G8 gene (mRNA level)” value [9] was “increased” and the “expression level of amino acid transporter gene (mRNA level)” value [10] was “increased”. The “expression level of scavenge receptor class B gene (mRNA level)” value [11] was “increased”, the “expression level of folic acid transporter gene (mRNA level)” value [12] was “increased” and the “expression level of biotinidase gene (mRNA level)” value [8] was “increased”.
